# Laboratory results as given in patent US10083341B2, “Cellular activity quantification using labeled probes” (Oregon Health & Science University, priority 2014, dated 2018).
# Entries after “also recorded” stand apart in the source; their conditions may differ. Read-outs that look alike come from different tables or passages of the source.
# Legend:
# MOLM-14 cells = assay: Inhibitory concentrations (IC50, IC12.5) of kinase inhibitor panel for MOLM-14 cells; format: cell-based, human; conditions: concentration used for 48 h treatment
# [1] = test system: pCRKL, pSTAT5, and pSTAT3; assay: SC-QDP baseline phosphoheterogeneity of K562 cells after cell cycle synchronization; format: cell-based, human; conditions: lovastatin-induced cell cycle synchronization, data not shown
# Text: (§1) SC-QDP phosphoprotein labeling. Cells were fixed, permeabilized and dispersed onto cover glass chambers (Lab-Tek; Nunc), or custom-made, multi-well cover glass chambers for high throughput assays. The cells in each well were blocked and treated with primary anti-phosphoprotein antibodies (pCRKL, pSTAT5, pSTAT3, pERK1/2, pAKT473; Cell Signaling Technology). The anti-CD34 antibody (Dako, USA) was used for selection of CD34+ primitive cells. […]
# (§2) SC-QDP image acquisition. Cells were imaged with an inverted fluorescent microscope (Zeiss AxioObserver) equipped with high magnification objectives, QD filter sets (Semrock), and a Luca-R camera (Andor) suitable for detecting discrete QD fluorescence. […]
# SC-QDP discrete QD counts in single cells. Levels of phosphoprotein activity were quantified in single cells using automated software imaging algorithms. […] Discrete QD fluorescence was detected, localized and tabulated on a per cell basis using automated algorithms written in MATLAB (Matlab). […] The output of these automated algorithms comprised total counts of detected and localized discrete QD fluorescent puncta in each single cell z-stack. […] The QDs were identified as discrete, non-aggregated units comprised of single or a few QDs, as confirmed by intensity profile measurements of QD fluorescence. […]
# pAKT = conditions: MOLM-14 cells, 48 h
# Procedure: (§3) Cell culture and kinase inhibitor treatment. Primary mononuclear cells (MNCs) were isolated from peripheral blood or bone marrow of newly diagnosed, untreated patients with chronic phase CML. MNCs were isolated by centrifugation through a Ficoll gradient, and red blood cells were lysed with 1×ACK (0.15 M NH4Cl, 10 mM KHCO3, 0.1 mM EDTA). MNCs were grown in serum-free media consisting of IMDM supplemented with 20% BIT (Stem Cell Technologies), 40 μg/ml low-density lipoprotein (Sigma-Aldrich), 10^-6 M β-mercaptoethanol, and the following cytokines: 100 ng/ml SCF (Stem Cell Technologies), 100 ng/ml G-CSF, 20 ng/ml FLT3 ligand, 20 ng/ml IL-3, and 20 ng/ml IL-6 (Sigma-Aldrich). MNCs were grown at a density of 5×10^5 cells/ml at 37° C., 5% CO2, overnight in a humidified incubator before drug treatment. The CML (K562) and AML (MOLM-14) cell lines were grown in suspension culture, in RPMI with 10% fetal bovine serum (Invitrogen), 1% L-glutamine (100 mM), and 1% penicillin/streptomycin (100 μg/ml), in a humidified incubator at 37° C., 5% CO2.
# (§4) K562 cells and MNCs were treated for 4 h with dasatinib, at a concentration of 100 nM unless otherwise specified.
# (§5) SC-QDP phosphoprotein labeling. Cells were fixed, permeabilized and dispersed onto cover glass chambers (Lab-Tek; Nunc), or custom-made, multi-well cover glass chambers for high throughput assays. The cells in each well were blocked and treated with primary anti-phosphoprotein antibodies (pCRKL, pSTAT5, pSTAT3, pERK1/2, pAKT473; Cell Signaling Technology). The anti-CD34 antibody (Dako, USA) was used for selection of CD34+ primitive cells. […] After cells were incubated with secondary antibodies, they were washed in buffer solution and imaged.
# (§6) SC-QDP image acquisition. Cells were imaged with an inverted fluorescent microscope (Zeiss AxioObserver) equipped with high magnification objectives, QD filter sets (Semrock), and a Luca-R camera (Andor) suitable for detecting discrete QD fluorescence. Data acquisition consisted of acquiring multiple fields of view randomly for each well of the multi-well chamber. The microscope was controlled by Micromanager (www.micro-manager.org/). […] Image acquisition was performed manually or by automated high-throughput scanning. For automated high-throughput scanning, a custom-written Java plugin for Micromanager was used that allows scanning of user-selected wells as well as random or user-selected areas within each well for DIC, and appropriate multiple quantum dot (QD) channels. The Java plugin also corrected slide tilt by determining the slide focal plane. Image focus at each well was verified and corrected manually if needed.
# (§7) SC-QDP discrete QD counts in single cells. Levels of phosphoprotein activity were quantified in single cells using automated software imaging algorithms. Cell segmentation was first done manually and then was optimized for speed using an automated procedure. Automated cell segmentation comprised detecting the nucleus and plasma membrane using a threshold-based intensity algorithm and a membrane expansion cell segmentation algorithm (www.cellprofiler.org) of each cell. Discrete QD fluorescence was detected, localized and tabulated on a per cell basis using automated algorithms written in MATLAB (Matlab). Briefly, detection of discrete QD probes was accomplished in single-cell z-stacks by applying a spatial bandpass filter, detecting localized maxima, and calculating the position of each QD for each z-slice. […] The output of these automated algorithms comprised total counts of detected and localized discrete QD fluorescent puncta in each single cell z-stack.
# pERK = conditions: MOLM-14 cells, 48 h
# Procedure: as §3, §4, §5, §6, §7
# pCRKL [2] = assay: SC-QDP discrete QD counting of pCRKL in K562 cells; format: cell-based, human; conditions: pCRKL level divided by isotype control, untreated 11.4
# Procedure: as §3, with “The CML (K562) and AML (MOLM-14) cell lines were grown in suspension culture, in RPMI with 10% fetal bovine serum (Invitrogen), 1% L-glutamine (100 mM), and 1% penicillin/streptomycin (100 μg/ml), in a humidified incubator at 37° C., 5% CO2.” left out
# as §2
# (§8) SC-QDP discrete QD counts in single cells. Levels of phosphoprotein activity were quantified in single cells using automated software imaging algorithms. […]
# pCRKL [3] = assay: QD total (diffuse) fluorescence quantification of pCRKL in K562 cells; format: cell-based, human; conditions: dasatinib-treated, untreated 1.1
# Procedure: as §3, with “The CML (K562) and AML (MOLM-14) cell lines were grown in suspension culture, in RPMI with 10% fetal bovine serum (Invitrogen), 1% L-glutamine (100 mM), and 1% penicillin/streptomycin (100 μg/ml), in a humidified incubator at 37° C., 5% CO2.” left out
# as §2
# Measurements of single-cell total fluorescence of QD and Alexa dyes were obtained for each cell by summing pixel values from all slices in a single z-stack corresponding to each cell and subtracting the global background value for each field of view from the image. […]
# pCRKL [4] = assay: SC-QDP pCRKL in single CD34+ cells from CML patients; format: cell-based, human; conditions: dasatinib 100 nM, 4 h
# Procedure: as §3
# K562 cells and MNCs were treated for 4 h with dasatinib, at a concentration of 100 nM unless otherwise specified. […].
# as §1, §2, §8
# pSTAT5 = assay: SC-QDP pSTAT5 in single CD34+ cells from CML patients; format: cell-based, human; conditions: five CML patients, dasatinib 100 nM, 4 h
# Procedure: as §3, with “The CML (K562) and AML (MOLM-14) cell lines were grown in suspension culture, in RPMI with 10% fetal bovine serum (Invitrogen), 1% L-glutamine (100 mM), and 1% penicillin/streptomycin (100 μg/ml), in a humidified incubator at 37° C., 5% CO2.” left out
# as §2, §8
Structure (SMILES),IC50 (MOLM-14 cells; Homo sapiens),IC12.5 (MOLM-14 cells; Homo sapiens),IC12.5 (MOLM-14 cells),other results
CC[C@H](C)C(=O)O[C@H]1C[C@@H](C)C=C2C=C[C@H](C)[C@H](CC[C@@H]3C[C@@H](O)CC(=O)O3)[C@H]21 [lovastatin],–,–,–,baseline phosphoheterogeneity [1]: reduced this heterogeneity
COc1cc2ncnc(Nc3ccc(F)c(Cl)c3)c2cc1OCCCN1CCOCC1 [gefitinib],–,2.25 µM,–,–
Cc1ccc(C(=O)Nc2ccc(CN3CCN(C)CC3)c(C(F)(F)F)c2)cc1C#Cc1cnc2cccnn12 [ponatinib],0.004 µM,–,0.001 µM,–
C#Cc1cccc(Nc2ncnc3cc(OCCOC)c(OCCOC)cc23)c1 [erlotinib],7 µM,1.75 µM,–,overall shift of pAKT PDE curve (pAKT): left-shift; pAKT phosphoresponse (pAKT; at IC12.5): phosphoinhibition; also recorded: inhibition of pAKT; pAKT phosphoresponse (pAKT; at IC50): phosphoactivation; also recorded: pAKT activation; overall shift of pERK PDE curve (pERK): left-shift; percentage of resistant cells (pERK equal to or greater than mean pERK of untreated cells) (pERK; IC50 concentration (FIG. 5C legend)): 36%; pERK phosphoresponse (pERK; at IC12.5): phosphoinhibition; pERK phosphoresponse (pERK; at IC50): phosphoactivation
C[C@@H](Oc1cc(-c2cnn(C3CCNCC3)c2)cnc1N)c1c(Cl)ccc(F)c1Cl [crizotinib],1.8 µM,0.45 µM,–,–
C=CC(=O)N1CCC[C@@H](n2nc(-c3ccc(Oc4ccccc4)cc3)c3c(N)ncnc32)C1 [ibrutinib],1.6 µM,0.4 µM,–,–
CNC(=O)c1ccccc1Sc1ccc2c(/C=C/c3ccccn3)n[nH]c2c1 [axitinib],–,–,0.025 µM,–
Cc1ccc(NC(=O)c2ccc(CN3CCN(C)CC3)cc2)cc1Nc1nccc(-c2cccnc2)n1 [imatinib],–,2.5 µM,–,–

# More lines, main results first:
IC50 (MOLM-14 cells; Homo sapiens),Structure (SMILES),IC12.5 (MOLM-14 cells; Homo sapiens),IC12.5 (MOLM-14 cells),other results
9 µM,Cc1cn(-c2cc(NC(=O)c3ccc(C)c(Nc4nccc(-c5cccnc5)n4)c3)cc(C(F)(F)F)c2)cn1 [nilotinib],2.25 µM,–,–
0.012 µM,CCN(CC)CCNC(=O)c1c(C)[nH]c(/C=C2\C(=O)Nc3ccc(F)cc32)c1C [sunitinib],–,0.003 µM,–
9 µM,CS(=O)(=O)CCNCc1ccc(-c2ccc3ncnc(Nc4ccc(OCc5cccc(F)c5)c(Cl)c4)c3c2)o1 [lapatinib],2.25 µM,–,–
3.6 µM,COc1cc2c(Nc3ccc(Br)cc3F)ncnc2cc1OCC1CCN(C)CC1 [vandetanib],0.9 µM,–,–
2 µM,Cc1ccc(Nc2nccc(N(C)c3ccc4c(C)n(C)nc4c3)n2)cc1S(N)(=O)=O [pazopanib],0.5 µM,–,–
0.02 µM,CO[C@H]1C[C@@H]2CC[C@@H](C)[C@@](O)(O2)C(=O)C(=O)N2CCCC[C@H]2C(=O)O[C@H]([C@H](C)C[C@@H]2CC[C@@H](O)[C@H](OC)C2)CC(=O)[C@H](C)/C=C(\C)[C@@H](O)[C@@H](OC)C(=O)[C@H](C)C[C@H](C)/C=C/C=C/C=C/1C [rapamycin],–,0.005 µM,–
10 µM,N#CC[C@H](C1CCCC1)n1cc(-c2ncnc3[nH]ccc23)cn1 [ruxolitinib],2.5 µM,–,–
0.4 µM,Cc1nc(Nc2ncc(C(=O)Nc3c(C)cccc3Cl)s2)cc(N2CCN(CCO)CC2)n1 [dasatinib],–,0.1 µM,"pCRKL activity S/N ratio by QD counting (pCRKL [2]; dasatinib 10 nM): 4.7; pCRKL activity S/N ratio by QD counting (pCRKL [2]; dasatinib 100 nM): 2.3; pCRKL S/N ratio by QD total fluorescence (pCRKL [3]): 1.7; pCRKL inhibition (shift in peak of PDE curve) (pCRKL [4]; CD34+ cells of five CML patients): ~1.8 fold; frequency of dasatinib-resistant CD34+ cells, alternative threshold (pCRKL greater than mean untreated − 0.5σ untreated) (pCRKL [4]; five CML patients): 8.5-53.9%; frequency of dasatinib-resistant CD34+ cells (pCRKL equal to or greater than mean of untreated CD34+ cells) (pCRKL [4]; five CML patients, of total dasatinib-treated cell population): 5.4-9.9%; resistant CD34+ cell population (pSTAT5 greater than mean pSTAT5 of untreated CD34+ cells) (pSTAT5): 17-37%"
0.008 µM,CNC(=O)c1cc(Oc2ccc(NC(=O)Nc3ccc(Cl)c(C(F)(F)F)c3)cc2)ccn1 [sorafenib],–,0.002 µM,–
